Source: patent publication US20190022072A1, “USAGE OF ACETAZOLAMIDE FOR TREATING ICH, PARTICULARLY HYPERGLYCEMIC ICH” (priority 2017, published 2019)

Experiments:
AQP4 = experiment: expression of AQP4 in brain tissues of normoglycemic and hyperglycemic rats with experimental ICH, immunohistochemistry; format: in vivo, Wistar rats
Description: (§1) In the hyperglycemia experiment, six Wistar rats are applied. Regarding each rat, hyperglycemia is induced by a single intraperitoneal injection of a buffer solution of streptozotocin (STZ) in 31 mM citrate and 39 mM sodium phosphate at 70 mg/kg body weight after an overnight fast. On the other hand, control rats receive an intraperitoneal injection of buffer vehicle. On day 3 after STZ treatment, whole blood of the rats is obtained and the glucose levels thereof are measured. Blood glucose level of ≥250 mg/dL was chosen as hyperglycemia, whereas rats were used as normoglycemia, defined as a blood glucose level of <100 mg/dL.
(§2) Then in the intracerebral hemorrhage experiment, each hyperglycemic or normoglycemic rat is anesthetized with an intraperitoneal injection of 50 mg/kg pentobarbital. Next, a needle is introduced through a burr hole into the striatum, and the needle is then removed, with the burr hole sealed with bone wax and the wound sutured. After a period of time, AZA is administered orally or by gastric lavage at 5 mg/kg in normal saline. Blood of the rats are sampled on days 1, 4, and 7 post-induction of ICH for testing the glucose level thereof.
Experiment 3: determining the expression of AQP4 in normoglycemic and hyperglycemic rats.
The differential expressions of AQP4 in normoglycemic and hyperglycemic rats are detected by AQP4 autoantibody by Immunohistochemistry. The effect of AZA influencing the expression of AQP4 are tested.

experimental ICH = experiment: hemorrhagic areas of brains of normoglycemic and hyperglycemic rats with experimental ICH treated with AZA; format: in vivo, Wistar rats
Description: as §1, §2
Experiment 2: comparing the hemorrhagic areas of normoglycemic and hyperglycemic rats treated with AZA.

[1] = hyperglycemic rats treated with AZA, day 1
[2] = hyperglycemic rats treated with AZA, day 4
[3] = hyperglycemic rats treated with AZA, day 7
[4] = normoglycemic rats treated with AZA, day 1
[5] = normoglycemic rats treated with AZA, day 4
[6] = normoglycemic rats treated with AZA, day 7

CC(=O)Nc1nnc(S(N)(=O)=O)s1 [AZA, acetazolamide]
AQP4 expression, change in words (AQP4; hyperglycemic rats administered with AZA (5 mg/kg)): significant decrease | the expression of AQP4 (AQP4; [1]): 15.67 ± 6.59 | the expression of AQP4 (AQP4; [2]): 8.65 ± 4.53% | the expression of AQP4 (AQP4; [3]): 2.33 ± 3.83 | the expression of AQP4 (AQP4; [4]): 12.19 ± 2.75 | the expression of AQP4 (AQP4; [5]): 18.56 ± 5.67 ^ | the expression of AQP4 (AQP4; [6]): 37.84 ± 6.53 | hemorrhagic areas, change in words (experimental ICH; both normoglycemic and hyperglycemic rats treated with AZA): significant decrease | hemorrhagic areas square measure of rats (%) (experimental ICH; [1]): 2.08 ± 0.02% | hemorrhagic areas square measure of rats (%) (experimental ICH; [2]): 0.91 ± 0.13% | hemorrhagic areas square measure of rats (%) (experimental ICH; [3]): 0.38 ± 0.10% | hemorrhagic areas square measure of rats (%) (experimental ICH; [4]): 6.00 ± 0.05% | hemorrhagic areas square measure of rats (%) (experimental ICH; [5]): 2.61 ± 0.17% | hemorrhagic areas square measure of rats (%) (experimental ICH; [6]): 1.37 ± 0.05%
